# Assay results from US11840686B2, “Modulation of prekallikrein (PKK) expression” (Ionis Pharmaceuticals, Inc., priority 2013, dated 2023).
# Strand notation (5' to 3'): a small letter for the sugar, then the base; units joined by * are phosphorothioate-linked, units joined directly phosphodiester-linked; [ ] holds rarer units or linkages, { } end groups; capitals alone tell only the bases. e = 2'-O-(2-methoxyethyl) (MOE); k = constrained ethyl (cEt); [5mC] = 5-methylcytosine; d = 2'-deoxy (DNA)
# System: human PKK mRNA
# Assay: Antisense inhibition of human PKK mRNA in HepaRG cells, 1,000 nM, MOE/deoxy/cEt oligonucleotides (Example 3)
# Type: cell-based
# In short: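 Readout is percent PKK mRNA reduction against untreated controls, by real-time PCR (RTS3454) adjusted for total RNA via RIBOGREEN. Oligonucleotides, phosphorothioate gapmers of 16 nucleosides with cEt, MOE and deoxy sugars, were delivered at 1,000 nM by electroporation to 20,000 HepaRG cells/well for roughly 24 h.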
# [1] = Table 20, HepaRG cells, electroporation with 1,000 nM antisense oligonucleotide, approximately 24 hours, PKK mRNA by RT-PCR (RTS3454), relative to untreated control cells
# [2] = Table 22 experiment, HepaRG cells, electroporation with 1,000 nM antisense oligonucleotide, approx. 24 hours, PKK mRNA by RT-PCR (RTS3454), relative to untreated control cells
# [3] = PKK mRNA, HepaRG cells, 1,000 nM antisense oligonucleotide, Table 31
# [4] = Table 30, human PKK mRNA, HepaRG cells, 1,000 nM antisense oligonucleotide
# [5] = HepaRG cells, 1,000 nM antisense oligonucleotide, Table 29
# [6] = HepaRG cells, electroporation with 1,000 nM antisense oligonucleotide, approximately 24 hours, primer probe set RTS3454, relative to untreated control cells, experiment of Table 24
# [7] = Table 21 experiment, HepaRG cells, electroporation with 1,000 nM antisense oligonucleotide, approx. 24 hours, PKK mRNA by RT-PCR (RTS3454), relative to untreated control cells
# [8] = HepaRG cells, electroporation with 1,000 nM antisense oligonucleotide, approximately 24 hours, primer probe set RTS3454, relative to untreated control cells, experiment of Table 23
# [9] = Table 28, HepaRG cells, 1,000 nM antisense oligonucleotide, human PKK mRNA
# [10] = Table 27, HepaRG cells, 1,000 nM antisense oligonucleotide, human PKK mRNA
# [11] = HepaRG cells, electroporation with 1,000 nM antisense oligonucleotide, approx. 24 hours, PKK mRNA by RT-PCR (RTS3454), relative to untreated control cells, Table 25 experiment
# [12] = HepaRG cells, electroporation with 1,000 nM antisense oligonucleotide, approx. 24 hours, PKK mRNA by RT-PCR (RTS3454), relative to untreated control cells, Table 26 experiment
# [13] = Table 19, HepaRG cells, electroporation with 1,000 nM antisense oligonucleotide, approximately 24 hours, PKK mRNA by RT-PCR (RTS3454), relative to untreated control cells
substance,measurement,setting,value
547904 (eA*e[5mC]*kT*d[5mC]*dA*dG*d[5mC]*dA*d[5mC]*d[5mC]*dT*dT*dT*kA*kT*eA; antisense) [compound 547904],% inhibition,[1],56%
same,% inhibition,[2],41%
548654 (antisense eA*e[5mC]*k[5mC]*dA*dT*dT*d[5mC]*d[5mC]*dT*dG*dA*d[5mC]*d[5mC]*kA*kT*eG) [compound 548654],% inhibition,[3],34%
548429 (antisense eT*eA*kT*dA*dA*d[5mC]*dT*dA*dT*dA*dA*d[5mC]*dA*kG*kT*eA) [compound 548429],% inhibition,[4],0%
547878 (antisense e[5mC]*eA*kA*d[5mC]*dA*d[5mC]*dT*dG*d[5mC]*dT*dA*dA*d[5mC]*k[5mC]*kT*eT) [compound 547878],% inhibition,[2],62%
548537 (antisense e[5mC]*e[5mC]*kT*d[5mC]*dA*dA*dT*d[5mC]*d[5mC]*d[5mC]*dA*dA*d[5mC]*k[5mC]*k[5mC]*eA) [compound 548537],% inhibition,[5],0%
548054 (eA*eA*kT*dT*d[5mC]*dA*dA*dA*dG*dG*dA*dG*d[5mC]*k[5mC]*kT*eG; antisense) [compound 548054],% inhibition,[6],45%
548677 (antisense eT*e[5mC]*kA*d[5mC]*d[5mC]*dT*dG*dT*dG*dA*dG*dT*dA*kA*k[5mC]*e[5mC]) [compound 548677],% inhibition,[3],40%
547915 (eT*eG*kG*d[5mC]*dA*dA*d[5mC]*dA*dT*d[5mC]*d[5mC]*dA*d[5mC]*kA*kT*e[5mC]; antisense) [compound 547915],% inhibition,[1],0%
same,% inhibition,[2],62%
548539 (antisense e[5mC]*eG*k[5mC]*dG*d[5mC]*dG*dA*dA*dT*dG*d[5mC]*d[5mC]*dT*kG*k[5mC]*e[5mC]) [compound 548539],% inhibition,[5],41%
548071 (eA*eG*kA*dA*dG*d[5mC]*d[5mC]*d[5mC]*d[5mC]*dA*dT*d[5mC]*d[5mC]*kG*kG*eT; antisense) [compound 548071],% inhibition,[6],55%
547796 (antisense eA*eT*k[5mC]*d[5mC]*d[5mC]*d[5mC]*dA*d[5mC]*d[5mC]*dT*d[5mC]*dT*dG*kA*kA*eG) [compound 547796],% inhibition,[7],35%
548400 (eG*eG*kG*d[5mC]*dT*d[5mC]*d[5mC]*dT*dA*dT*dT*d[5mC]*d[5mC]*kA*k[5mC]*e[5mC]; antisense) [compound 548400],% inhibition,[4],13%
548455 (e[5mC]*eA*k[5mC]*d[5mC]*dG*dT*dA*d[5mC]*dT*dA*dG*dT*dT*kT*k[5mC]*e[5mC]; antisense) [compound 548455],% inhibition,[4],64%
547956 (eG*eT*kT*dA*dA*dA*dA*dG*dG*d[5mC]*dT*dA*dT*kA*kT*e[5mC]; antisense) [compound 547956],% inhibition,[8],13%
548014 (eT*eG*kT*d[5mC]*d[5mC]*d[5mC]*d[5mC]*dA*dG*dT*dG*dT*dT*kA*k[5mC]*eA; antisense) [compound 548014],% inhibition,[6],31%
548590 (eT*eG*kG*dT*d[5mC]*dA*dT*dG*dT*d[5mC]*dA*dA*d[5mC]*kT*kG*eT; antisense) [compound 548590],% inhibition,[5],35%
548512 (antisense eT*e[5mC]*k[5mC]*dG*d[5mC]*d[5mC]*dT*dT*dT*dG*dG*dA*dT*kA*k[5mC]*eT) [compound 548512],% inhibition,[9],49%
548336 (antisense eG*e[5mC]*kA*d[5mC]*dA*dT*dT*dA*dG*dG*dA*dG*dG*kT*kA*eG) [compound 548336],% inhibition,[10],1%
548318 (eA*e[5mC]*kT*dG*d[5mC]*dA*d[5mC]*d[5mC]*d[5mC]*d[5mC]*dA*d[5mC]*dA*kT*kA*eT; antisense) [compound 548318],% inhibition,[10],18%
547794 (antisense eT*e[5mC]*kA*dT*dA*dG*dA*dG*dT*dT*dG*dA*dG*kT*k[5mC]*eA) [compound 547794],% inhibition,[7],49%
547914 (eG*eG*k[5mC]*dA*dA*d[5mC]*dA*dT*d[5mC]*d[5mC]*dA*d[5mC]*dA*kT*k[5mC]*eT; antisense) [compound 547914],% inhibition,[1],74%
same,% inhibition,[2],63%
548352 (antisense eG*eA*kG*dA*dG*dA*dG*dA*dT*dG*dT*dT*d[5mC]*k[5mC]*k[5mC]*eT) [compound 548352],% inhibition,[10],47%
548183 (e[5mC]*eA*kG*dT*d[5mC]*dA*dT*dG*dG*dA*dG*dA*dT*k[5mC]*kT*e[5mC]; antisense) [compound 548183],% inhibition,[11],43%
548308 (eA*eA*kT*dG*dG*d[5mC]*dA*dG*dG*dT*d[5mC]*d[5mC]*dT*kG*kG*e[5mC]; antisense) [compound 548308],% inhibition,[10],9%
548013 (eG*eT*k[5mC]*d[5mC]*d[5mC]*d[5mC]*dA*dG*dT*dG*dT*dT*dA*k[5mC]*kA*e[5mC]; antisense) [compound 548013],% inhibition,[6],37%
548579 (eG*eG*kG*d[5mC]*dT*dA*dT*dA*dT*dT*dG*d[5mC]*d[5mC]*kA*kG*e[5mC]; antisense) [compound 548579],% inhibition,[5],46%
548683 (antisense eA*eG*kT*dA*dT*d[5mC]*dT*d[5mC]*dA*dT*dG*dT*dG*k[5mC]*k[5mC]*eT) [compound 548683],% inhibition,[3],46%
548442 (antisense eT*eT*k[5mC]*d[5mC]*dT*dA*dT*dA*dA*d[5mC]*dA*dG*dT*kA*kT*e[5mC]) [compound 548442],% inhibition,[4],17%
547941 (eG*eT*kG*dT*dG*d[5mC]*d[5mC]*dA*d[5mC]*dT*dT*dT*d[5mC]*kA*kG*eA; antisense) [compound 547941],% inhibition,[8],66%
548273 (antisense eA*eA*kT*d[5mC]*dT*d[5mC]*d[5mC]*dA*d[5mC]*d[5mC]*d[5mC]*d[5mC]*d[5mC]*kG*kA*eA) [compound 548273],% inhibition,[12],5%
548002 (antisense eA*eA*k[5mC]*d[5mC]*dA*dG*dA*dG*d[5mC]*dT*d[5mC]*d[5mC]*d[5mC]*kT*kT*eG) [compound 548002],% inhibition,[6],56%
548296 (eA*e[5mC]*k[5mC]*dA*dA*d[5mC]*dA*dA*d[5mC]*dT*d[5mC]*dA*dG*kG*k[5mC]*e[5mC]; antisense) [compound 548296],% inhibition,[12],34%
548414 (antisense eT*e[5mC]*kT*dA*dA*d[5mC]*dA*dG*dT*dA*dT*d[5mC]*dA*k[5mC]*kT*eG) [compound 548414],% inhibition,[4],20%
548592 (e[5mC]*eT*k[5mC]*dA*d[5mC]*d[5mC]*dA*dG*dA*dG*dT*dT*dG*kT*k[5mC]*e[5mC]; antisense) [compound 548592],% inhibition,[5],7%
548113 (antisense eG*eG*kT*dG*dA*d[5mC]*dT*dG*d[5mC]*dA*dT*d[5mC]*dT*kG*kA*eG) [compound 548113],% inhibition,[13],56%
548369 (eG*eT*kT*dG*dG*dG*dA*dT*dG*d[5mC]*dG*dA*d[5mC]*kT*k[5mC]*eT; antisense) [compound 548369],% inhibition,[10],50%
548227 (eG*eT*kG*dG*d[5mC]*d[5mC]*d[5mC]*dT*d[5mC]*dT*dT*dA*dA*kG*kT*e[5mC]; antisense) [compound 548227],% inhibition,[11],0%
548126 (eT*eG*k[5mC]*d[5mC]*dT*dA*dG*dA*d[5mC]*dT*d[5mC]*dT*dG*kG*kA*e[5mC]; antisense) [compound 548126],% inhibition,[13],19%
548675 (antisense eG*eG*kG*dA*dA*dG*dG*dT*dA*dG*dT*dG*dT*kT*kA*e[5mC]) [compound 548675],% inhibition,[3],8%
547900 (eT*eG*kT*dA*d[5mC]*dT*dT*dT*dA*dA*dT*dA*dG*kG*k[5mC]*eA; antisense) [compound 547900],% inhibition,[1],93%
same,% inhibition,[2],68%
547829 (eA*e[5mC]*k[5mC]*dT*dG*dT*dT*d[5mC]*dG*dA*dT*dG*dT*kA*k[5mC]*eT; antisense) [compound 547829],% inhibition,[7],59%
548212 (eA*eG*k[5mC]*d[5mC]*d[5mC]*dA*d[5mC]*d[5mC]*dA*dA*d[5mC]*dA*dA*kT*k[5mC]*eT; antisense) [compound 548212],% inhibition,[11],44%
548481 (eG*eT*kT*d[5mC]*d[5mC]*d[5mC]*dT*dG*dA*dG*dG*dA*dA*k[5mC]*kG*eG; antisense) [compound 548481],% inhibition,[9],2%
548012 (eT*e[5mC]*k[5mC]*d[5mC]*d[5mC]*dA*dG*dT*dG*dT*dT*dA*d[5mC]*kA*k[5mC]*eA; antisense) [compound 548012],% inhibition,[6],3%
548327 (e[5mC]*eT*kA*d[5mC]*dA*d[5mC]*d[5mC]*dT*dT*dT*d[5mC]*dT*dG*k[5mC]*kA*e[5mC]; antisense) [compound 548327],% inhibition,[10],6%
548198 (eA*e[5mC]*kT*dG*d[5mC]*dA*dG*dG*d[5mC]*dA*dA*dT*dA*kT*kT*eT; antisense) [compound 548198],% inhibition,[11],49%
